Measured values from patent US5266570A, “Piperidine derivatives, compositions and use” (Imperial Chemical Industries PLC, priority 1991, dated 1993).

Tests used:
[1] = biological target: T1, dopamine (DA) D-2 receptor (Rattus norvegicus, UniProt P61169); assay: TEST A: [3H]-spiperone binding, dopamine (DA) D-2 receptor, rat striatal membranes; conditions: 0.5 nM [3H] spiperone, 40 nM ketanserin, pH 7.7, 37° C., 15 min, typical values, read-out: IC50 (drug concentration which produced a 50% displacement) for the displacement of [3H] spiperone
T1 construct: Specifically, rat striatal membranes were used; from tissue; host or cells: rat striatum (membranes)
T1 sequence (P61169 whole entry): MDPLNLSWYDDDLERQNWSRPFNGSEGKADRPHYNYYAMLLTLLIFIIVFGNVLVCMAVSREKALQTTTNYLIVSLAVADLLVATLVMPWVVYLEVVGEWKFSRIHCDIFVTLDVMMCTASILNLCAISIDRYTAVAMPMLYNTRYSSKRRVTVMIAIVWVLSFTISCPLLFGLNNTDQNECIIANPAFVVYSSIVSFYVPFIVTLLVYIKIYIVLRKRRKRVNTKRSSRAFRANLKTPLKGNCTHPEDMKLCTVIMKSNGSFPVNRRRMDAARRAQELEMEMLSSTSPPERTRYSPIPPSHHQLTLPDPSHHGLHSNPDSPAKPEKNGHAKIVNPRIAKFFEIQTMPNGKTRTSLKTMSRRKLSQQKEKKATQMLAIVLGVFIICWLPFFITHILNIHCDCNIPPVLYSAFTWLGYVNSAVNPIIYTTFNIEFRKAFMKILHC
Description: (§1) The compounds of Formula I are antagonists of dopamine D-2 receptors, and as such are predicted to be useful as antipsychotic drugs. D-2 antagonism can be shown by standard tests such as antagonism of [^3 H]-spiperone binding (Test A), and/or antagonism of apomorphine-induced climbing and apomorphine-induced disruption of swimming (Test B).
The receptor binding assay used to measure affinities of various compounds for the dopamine (DA) D-2 receptor subtype was that described by Saller and Salama in J Pharmacol Exp Ther 236, page 714, 1986.
Specifically, rat striatal membranes were used. Tissue membranes were prepared and washed once in 50 volumes of the appropriate Tris HCl buffer. For the D-2 receptor binding assay, striatal membranes were suspended to a final concentration of 8 mg/ml in 50 mM Tris HCl with 40 nM ketanserin, pH 7.7. Nonspecific binding to D-2 receptors was measured in the presence of 1.0 μM (+)-butaclamol. IC50 s (drug concentration which produced a 50% displacement) for the displacement of 0.5 nM [^3 H] spiperone were determined using at least five concentrations of each drug in triplicate. One-half milliliter of membrane suspension was incubated with the compound of interest or vehicle or nonspecific drug, ligand and appropriate Tris HCl buffer. […] The amount of drug bound to the membranes was assessed using liquid scintillation counting techniques. […]

[2] = system: apomorphine-induced climbing and apomorphine-induced disruption of swimming; assay: TEST B: antagonism of apomorphine-induced climbing and apomorphine-induced disruption of swimming; assay type: in vivo, mouse (female Swiss-Webster mice); conditions: Mus musculus; mice, oral, 30 min before apomorphine HCl 1.25 mg/kg sc; typical values; read-out: minimum effective dose (decrease in climbing score accompanied by increase in swimming score)
Experimental: as §1
Female Swiss-Webster mice weighing approximately 20 g were deprived of food for approximately 24 h and then dosed orally with various doses of either the vehicle or test agent over a range of doses (N=20 mice per treatment group). Thirty minutes later they were dosed with apomorphine HCl at 1.25 mg/kg, sc, and placed into climbing cages. The climbing cages were 9 cm wide, 15 cm deep and 30 cm high. One wall had 27 horizontal rungs spaced 1 cm apart. Thirteen minutes after apomorphine each mouse was observed continuously for 1 min and the highest and lowest rung reached by its front paws was recorded. […] (The highest and lowest scores were 27 and 0, respectively.) Immediately after the 1-min climbing observation period each mouse was placed into a circular swimming tank for 2 min and the number of swims was counted. […] A "swim" was scored each time a mouse swam from one mark to the other. The mice were observed through overhead mirrors and the number of 180 degree swims was recorded for each mouse. […]

SMILES	IC50 [1] [nM]	minimal effective dose [2] [mg/kg]
CCOCC(=O)NC1CCN(C[C@@]23C[C@@H](c4ccccc42)c2ccc(Cl)cc23)CC1 [Example 1, N-(1-[(9S,10S)-(+)-2-Chloro-9,10-dihydro-9,10-methanoanthracen-9-ylmethyl]-4-piperidyl)-2-ethoxyacetamide]	9	2.5
CCC(=O)NC1CCN(CC23CC(c4ccccc42)c2ccc(Cl)cc23)CC1 (stereo not shown) [Example 24, N-(1-[2-Chloro-9,10-dihydro-9,10-methanoanthracen-9-ylmethyl]-4-piperidyl)propionamide]	146	40
